From PubChem BioAssay AID1035470 (Broad Institute, 2014)
Records with an inconclusive call do not appear. The source made the active and inactive calls.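 The calls were made as follows: active = compound lowering the normal-ribosome reporter at least twice as much as the humanized-ribosome reporter, growth loss under a set limit; inconclusive = no clear call, values can overlap the other calls; inactive = the rest.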

Tested on: E. coli WT-GFP vs G2058-humanized RFP, fluorescence, 24 h
Experiment: growth inhibition of wild-type GFP E. coli versus G2058-humanized strain, dose response, G2058 mutant RFP vs wild-type GFP, cherry-pick, two tests (AID 1035470)
[1] = measured here: G2058 humanized mutant RFP growth
[2] = E. coli WT-GFP vs G2058-humanized RFP mixed culture, total growth OD600, 24 h

SMILES	AC50	AC50 [2] [µM]	further results
COc1cccc(NC(=O)c2ccc(NCCCN3CCC(C)CC3)c([N+](=O)[O-])c2)c1	–	–	AC50 [1]: 28.4 µM
COc1ccc(CNC(=O)c2sc3nc4c(c(C(F)(F)F)c3c2N)CCC4)cc1OC	–	–	AC50 [1]: > 100 µM
Cc1ccccc1-n1nnnc1SCCCC(=O)c1ccc(F)cc1	–	–	AC50 [1]: > 100 µM
O=C(O)c1cc(-c2ccc(Cl)s2)nc2ccccc12	> 100 µM (inactive)	–	–
COc1ccc(NC(=O)c2ccc(-c3ccc([N+](=O)[O-])cc3)o2)cc1	9.28 µM	–	AC50 (E. coli WT-GFP vs G2058-humanized RFP mixed culture, OD600 growth, 24 h, test 1): > 100 µM; AC50 (measured here: wild-type GFP, test 1): 4.75 µM
O=S(=O)(c1ccc(Cl)cc1)N1CCN=C1SCc1cccc(Cl)c1	> 100 µM (inactive)	–	–
Cc1cc2c(sc3ccccc32)c(C)n1	> 100 µM (inactive)	> 100	AC50 [1]: 48.8 µM
CC1CCN(c2ccc3nnc(CCC(=O)Nc4cccc(F)c4)n3n2)CC1	> 100 µM (inactive)	> 100	–
Cc1ccc(Nc2cc(C(=O)NCCCN3CCOCC3)c3ccccc3n2)cc1C	> 100 µM (inactive)	> 100	–
O=C(CSc1ccc(-c2cccnc2)nn1)N1CCCc2ccccc21	> 100 µM (inactive)	–	–
c1ccc(CSCc2ccccc2)cc1	–	–	AC50 [1]: > 100 µM
CCC(=O)Nc1nc2ccc(NC(=O)c3cc(OC)c(OC)c(OC)c3)cc2s1	> 100 µM (inactive)	–	–
Cc1ccc(S(=O)(=O)N2CC(=O)Nc3ccccc32)cc1C	> 100 µM (inactive)	> 100	–
CC(C)(C)N(Cc1ccccc1)C(=O)COC(=O)Cn1cnc2ccccc2c1=O	–	> 100	–
Cc1ccc(S(=O)(=O)Nc2ccccc2CNc2cccc(C)n2)cc1	> 100 µM (inactive)	> 100	–
Cn1c(-[n+]2c(-c3ccccc3)cc(-c3ccccc3)cc2-c2ccccc2)nc2c([N+](=O)[O-])cccc21	> 100 µM (inactive)	–	–
Cc1cc(C)c(S(=O)(=O)NCCOc2ccccc2)c(C)c1-n1cnnn1	> 100 µM (inactive)	–	–
O=C(c1ccc(Cl)cc1)N1CCN(c2cccc3[nH]ccc23)CC1	> 100 µM (inactive)	> 100	–
Cc1cc(C(C)(C)C)oc1C(=O)N(CC(=O)NC1CCCC1)c1c(C)cccc1C	> 100 µM (inactive)	–	–
O=C(Nc1cccc(Cl)c1)N1C[C@H]2[C@@H](c3ccccc31)[C@H](CO)N2Cc1ccncc1	> 100 µM (inactive)	–	–
Brc1ccccc1Cn1c(-c2cncs2)nc2ccccc21	> 100 µM (inactive)	> 100	AC50 [1]: > 100 µM
Cc1cc(C)nc(SCc2cn3c(C)cccc3n2)n1	> 100 µM (inactive)	> 100	–
Nc1ccccc1C#CC(=O)c1ccccc1	–	49	–

SMILES	AC50	AC50 [2] [µM]	further results
NC(=O)c1ccsc1NC(=O)COC(=O)Cc1ccc(F)cc1	> 100 µM (inactive)	–	AC50 [1]: > 100 µM
O=[N+]([O-])c1ccc(N2CCOCC2)c2c1no[n+]2[O-]	–	–	AC50 [1]: 0.638 µM
CCN(C(=O)CSc1cc(C)c2ccc(OC)cc2n1)C1CCS(=O)(=O)C1 (configuration not stated)	> 100 µM (inactive)	–	AC50 [1]: 3.93 µM
CCc1nnc(NS(=O)(=O)c2ccc(NC(=O)c3cccc(Cl)c3)cc2)s1	> 100 µM (inactive)	> 100	AC50 [1]: > 100 µM
COCC(C)NC(=O)c1nn(Cc2ccccc2)c(=O)c2ccccc12 (configuration not stated)	–	> 100	–
CC(C)Oc1ccc(C(CC(=O)O)NC(=O)C(Sc2ccccc2)c2ccccc2)cc1 (configuration not stated)	> 100 µM (inactive)	–	–
CCN(CC)CC(=O)Nc1ccc(-c2ccc(NC(=O)CN(CC)CC)c(OC)c2)cc1OC	> 100 µM (inactive)	> 100	–
COC(=O)c1sccc1NC(=O)CNC(=O)c1ccccc1	–	> 100	–
NS(=O)(=O)c1ccc(Nc2c([N+](=O)[O-])cncc2[N+](=O)[O-])cc1	> 100 µM (inactive)	–	–
COc1ccc(OC)c(S(=O)(=O)Nc2cccc3ccc(O)cc23)c1	> 100 µM (inactive)	–	–
CCN(CC)C(=O)c1sc2nc(-c3ccccc3)ccc2c1N	> 100 µM (inactive)	–	AC50 [1]: > 100 µM
Cc1ccc(Cn2cnc3ccccc32)cc1	> 100 µM (inactive)	–	–
COc1ccc(OC)c(NC(=O)CN(C)CC(=O)Nc2ccccc2Br)c1	–	> 100	–
O=C(CN(c1ccc(F)cc1)S(=O)(=O)c1ccccc1)Nc1ccccc1C(=O)O	–	> 100	–
C(=C/c1nccc2c1[nH]c1ccccc12)/c1ccc2c(c1)OCO2	–	–	AC50 [1]: > 100 µM
COc1ccc(-c2nc3c(C)cc(Br)cn3c2Cc2ccc(C)cc2)cc1OC	> 100 µM (inactive)	–	–
COc1ccccc1N1CCN(Cc2ccc(OC)c3ccccc23)CC1	–	> 100	–
CC(=O)Oc1ccc(N(c2ccccc2)S(=O)(=O)c2ccc(C)cc2)cc1	–	> 100	–
CCOc1ccc(C(C)=O)cc1CN1C(=O)NC2(CCCCCCC2)C1=O	> 100 µM (inactive)	> 100	–
Cc1cccc(SCC(=O)Nc2ccccc2[N+](=O)[O-])c1	> 100 µM (inactive)	> 100	–
C=CCSc1cc(C)nc2c(-c3ccccc3)c(C)nn12	> 100 µM (inactive)	–	–
CSCCC1NC(=O)N(C(C)C(=O)Nc2cc(Cl)cc(Cl)c2)C1=O (configuration not stated)	> 100 µM (inactive)	> 100	AC50 [1]: 7.38 µM
